PMC12797170, “Potent Competitive Inhibitors of Ecto-5′-nucleotidase (CD73) based on 6‑(Het)aryl-7-deazapurine Ribonucleoside 5′‑O‑Bisphosphonates” (ACS Pharmacology & Translational Science, 2025)
≈ marks a conversion by molar mass, not a printed value.

Key:
[1] = Kinetic solubility in PBS; format: physicochemical; conditions: phosphate-buffered saline, pH 7.4, aqueous buffer, kinetic from dmso stock
Experimental: Test compounds were prepared as 10 mM stock solutions in DMSO and diluted in phosphate-buffered saline (PBS, pH 7.4) to a 100 μM solution, which was then aliquoted in duplicate. The duplicate samples were incubated in Multiscreen PCF Filter Plates (Merck Millipore) with sealed bottom at room temperature on a shaker for 2 h to allow equilibration. Following incubation, the samples were centrifuged into nonsterile, flat-bottom 96-well plates at 2,200 RCF for 12 min. Supernatants were then diluted 1:99 in a solution of 50% acetonitrile containing 0.1% DMSO. The diluted samples were transferred to 384-well Echo plates, which contained prespotted calibration standards prepared by Echo transfer of 10 mM and 1 mM DMSO stock solutions, resulting in calibration points ranging from 0.05 to 4 μM. Samples and standards were subsequently analyzed by Echo-MS.

[2] = Microsomal stability assay, mouse liver microsomes; format: in vitro ADME; conditions: for Mics (m) comp remaining 60 min: 10 μM; for microsomal CLint at 10 µM: pooled liver microsomes, pH 7.4, read-out: Mics (m) CLint
[3] = Plasma protein binding, mouse plasma; format: in vitro ADME; conditions: mouse, plasma, mouse plasma protein binding; read-out: PPB (m) (converted)
Experimental: (§1) Plasma protein binding of the investigated compounds was determined using equilibrium dialysis in single-use Rapid Equilibrium Dialysis devices with an 8 kDa molecular weight cutoff (Thermo Fisher Scientific), following the manufacturer’s protocol. In brief, 50 μL of undiluted human plasma (Biowest), spiked with the test compound at a final concentration of 100 μM, was added to the sample chamber, while 300 μL of phosphate-buffered saline (PBS) was placed in the buffer chamber. Devices were incubated for 4 h at 37 °C with gentle shaking.
(§2) After dialysis, 7.5 μL aliquots from both the plasma and buffer chambers were transferred directly into wells of a 384-well plate. To equalize the matrices for downstream processing, 7.5 μL of PBS was added to each plasma aliquot, and 7.5 μL of plasma was added to each buffer aliquot. Proteins were precipitated by adding four volumes of ice-cold methanol to each well, followed by thorough mixing and incubation at – 20 °C for 30 min. Plates were then stored overnight at 8 °C. Prior to analysis, the plate was centrifuged at 2,000 × g for 20 min at 8 °C. […] The fraction of unbound compound was calculated using the following equations: %Free=c(bufferchamber)/c(plasmachamber)*100% %Bound=100%−%Free

[4] = biological target: T1, recombinant human CD73 (hCD73) (Homo sapiens, UniProt P21589); assay: CD73 activity assay on recombinant human CD73; format: biochemical; conditions: ΔGexp = RT ln Ki
T1 sequence (P21589 27-574): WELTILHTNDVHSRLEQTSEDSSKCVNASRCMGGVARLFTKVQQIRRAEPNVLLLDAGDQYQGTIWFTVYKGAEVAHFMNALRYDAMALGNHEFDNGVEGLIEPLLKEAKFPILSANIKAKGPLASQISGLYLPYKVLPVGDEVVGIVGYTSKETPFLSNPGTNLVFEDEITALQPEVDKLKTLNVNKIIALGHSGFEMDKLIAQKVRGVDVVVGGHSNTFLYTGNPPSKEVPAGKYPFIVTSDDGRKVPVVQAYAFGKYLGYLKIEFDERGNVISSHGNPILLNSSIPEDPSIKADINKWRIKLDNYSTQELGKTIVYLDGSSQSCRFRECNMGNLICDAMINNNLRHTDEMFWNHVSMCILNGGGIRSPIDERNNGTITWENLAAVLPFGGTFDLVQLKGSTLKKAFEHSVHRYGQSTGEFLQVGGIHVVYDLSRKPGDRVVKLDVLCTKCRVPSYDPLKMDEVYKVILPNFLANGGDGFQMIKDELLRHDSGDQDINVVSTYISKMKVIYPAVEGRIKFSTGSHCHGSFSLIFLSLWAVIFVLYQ

[5] = Microsomal stability assay, human liver microsomes; format: in vitro ADME; conditions: for Mics (hu) comp remaining 60 min: 10 μM; for microsomal CLint at 10 µM: pooled liver microsomes, pH 7.4, read-out: Mics (hu) CLint
in vitro [6] = conditions: human, plasma
[7] = Plasma protein binding, equilibrium dialysis, human plasma; format: in vitro ADME; conditions: undiluted plasma, human plasma protein binding, read-out: PPB (hu) (converted)
Experimental: as §1, §2

in vitro [8] = conditions: mouse, plasma
HeLa S3 = assay: In vitro cytotoxic activity; format: cell-based; conditions: Homo sapiens
Experimental: (§3) All the compounds were also tested for their in vitro cytotoxic activity on a small panel of four cancer cell lines (CCRF-CEM, HepG2, HeLa S3, HL-60) and nonmalignant human dermal fibroblasts (NHDF).

HepG2 = assay: In vitro cytotoxic activity; format: cell-based; conditions: Homo sapiens
Experimental: as §3

[9] = system: nonmalignant human dermal fibroblasts (NHDF); assay: In vitro cytotoxic activity; format: cell-based
Experimental: as §3

CCRF-CEM = assay: In vitro cytotoxic activity; format: cell-based; conditions: Homo sapiens
Experimental: as §3

HL-60 = assay: In vitro cytotoxic activity; format: cell-based; conditions: Homo sapiens
Experimental: as §3

SMILES	solubility at 2 h [1] [µM]	Mics (m) comp remaining 60 min [2] [%]	microsomal CLint at 10 µM [2] [µL/min/mg]	fraction unbound at 4 h, 100 µM [3]	dG_exp, experimental binding free energy [4]	Mics (hu) comp remaining 60 min [5] [%]	microsomal CLint at 10 µM [5] [µL/min/mg]	half-life at 10 µM (in vitro [6]) [h]	fraction unbound at 4 h, 100 µM [7]	half-life at 10 µM (in vitro [8]) [h]	IC50 (HeLa S3) [µM]	IC50 (HepG2) [µM]	IC50 [9] [µM]	IC50 (CCRF-CEM) [µM]	IC50 (HL-60) [µM]
O=P(O)(O)CP(=O)(O)OC[C@H]1O[C@@H](n2ccc3c(-c4ccc5ncccc5c4)ncnc32)[C@H](O)[C@@H]1O [4A.19]	85 (≈ 45.6 µg/mL)	105	< 1	0.685	–12.7 kcal/mol	94	< 1	> 2	0.048	> 2	> 10	> 10	> 10	> 10	3.1
O=P(O)(O)CP(=O)(O)OC[C@H]1O[C@@H](n2ccc3c(-c4cnc5ccccc5c4)ncnc32)[C@H](O)[C@@H]1O [4A.20]	> 100	110	< 1	0.536	–12.8 kcal/mol	88	2	> 2	0.054	> 2	> 10	> 10	> 10	> 10	> 10
O=P(O)(O)CP(=O)(O)OC[C@H]1O[C@@H](n2ccc3c(-c4ccc5cnccc5c4)ncnc32)[C@H](O)[C@@H]1O [4A.21]	> 100	79	8	0.737	–13.1 kcal/mol	95	3	> 2	0.054	> 2	> 10	> 10	> 10	> 10	5.9
O=P(O)(O)CP(=O)(O)OC[C@H]1O[C@@H](n2ccc3c(-c4ccc5cncnc5c4)ncnc32)[C@H](O)[C@@H]1O [4A.22]	66 (≈ 35.5 µg/mL)	101	< 1	0.948	–12.9 kcal/mol	92	4	> 2	0.113	> 2	> 10	> 10	> 10	9.9	4.8
CC1(C)Cc2cc(-c3nc(Cl)nc4c3ccn4[C@@H]3O[C@H](COP(=O)(O)CP(=O)(O)O)[C@@H](O)[C@H]3O)ccc2O1 [7B.30]	86 (≈ 50.7 µg/mL)	88	6	0.229	–15.6 kcal/mol	102	< 1	> 2	≤ 0.01	> 2	> 10	> 10	> 10	> 10	> 10
O=P(O)(O)CP(=O)(O)OC[C@H]1O[C@@H](n2ccc3c(-c4ccc5cc(OCc6ccccc6)ccc5c4)nc(Cl)nc32)[C@H](O)[C@@H]1O [7B.31]	> 100	134	< 2	≤ 0.01	–14.1 kcal/mol	147	< 2	> 2	≤ 0.01	> 2	> 10	> 10	> 10	> 10	> 10
Nc1ccc(-c2nc(Cl)nc3c2ccn3[C@@H]2O[C@H](COP(=O)(O)CP(=O)(O)O)[C@@H](O)[C@H]2O)c2ccccc12 [7B.33]	> 100	–	< 2	0.374	–14.1 kcal/mol	109	< 2	> 2	≤ 0.01	> 2	8.7	7.9	8.8	9.6	9.1
COc1ccc2cc(-c3nc(Cl)nc4c3ccn4[C@@H]3O[C@H](COP(=O)(O)CP(=O)(O)O)[C@@H](O)[C@H]3O)ccc2c1 [7B.35]	84 (≈ 50.4 µg/mL)	103	< 2	0.088	–15.4 kcal/mol	106	< 2	> 2	≤ 0.01	> 2	> 10	> 10	> 10	> 10	> 10
Nc1nc(-c2ccco2)c2ccn([C@@H]3O[C@H](COP(=O)(O)CP(=O)(O)O)[C@@H](O)[C@H]3O)c2n1 [11C.1, [(5-{[2-Amino-4-(furan-2-yl)-7H-pyrrolo[2,3-d]pyrimidin-7-yl]-β-D-ribofuranosyl}oxy)phosphonomethyl]phosphonic Acid]	> 100	103	< 1	0.622	–13.1 kcal/mol	107	< 1	> 2	0.224	> 2	> 10	> 10	> 10	> 10	> 10
Nc1nc(-c2ccc3ccccc3c2)c2ccn([C@@H]3O[C@H](COP(=O)(O)CP(=O)(O)O)[C@@H](O)[C@H]3O)c2n1 [11C.7]	> 100	97	2	0.305	–13.8 kcal/mol	100	< 1	> 2	0.037	> 2	> 10	> 10	> 10	> 10	> 10
Nc1nc(-c2cc3ccccc3o2)c2ccn([C@@H]3O[C@H](COP(=O)(O)CP(=O)(O)O)[C@@H](O)[C@H]3O)c2n1 [11C.8]	87 (≈ 47 µg/mL)	97	2	0.391	–13.9 kcal/mol	100	< 1	> 2	0.058	> 2	> 10	> 10	> 10	> 10	> 10
